Assay [1] deals with Recombinant human Bcl-2 protein (Homo sapiens (Human), UniProt P10415). As to the kind of experiment: Bcl-2 TR-FRET Assay. The format is binding. In outline: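 Compounds were pre-incubated with 0.05 nM recombinant Bcl-2 for 0.5 h at room temperature in potassium phosphate buffer, pH 7.5. FITC-Bak peptide (0.5 nM) and Tb-cryptate antibody were then added for 1 h. Percent inhibition from TR-FRET signals gave IC50 values.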

The target of assay [2] is recombinant human Bcl-2-G101V protein (Homo sapiens (Human), UniProt P10415, G101V). As to the kind of experiment: Bcl-2-G101V TR-FRET Assay. The format is binding. As to conditions: Bcl-2 G101V mutant, TR-FRET; read-out: Biochemical assay (IC50, nM) Bcl-2 G101V. The procedure, abridged:
(§1)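 Percent inhibition of the Bcl-2-G101V–ligand interaction was computed from the 490 nm to 520 nm emission ratio after 337 nm excitation, over increasing compound concentrations; a four-parameter logistic fit gave IC50.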

The subject of assay [3] is recombinant human Bcl-2-G101V protein. As to the kind of experiment: Bcl-2-G101V TR-FRET Assay. The note with it: ratio of biochemical IC50 Bcl-2 G101V / Bcl-2 WT. The format is binding. In outline: as §1
The test system of assay [4] is RS4;11 (BCL-2 dependent acute lymphoblastic leukemia cell line). As to the kind of experiment: RS4;11 Cell Proliferation Assay. The format is cell-based. The note with it: read-out: Cellular proliferation assay (IC50, nM) RS4. In outline: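 RS4;11 cells, 50,000 per well in RPMI-1640 with 10% FBS, treated 48 h at 37 °C with a 10-point dilution series topping at 1 μM. Viability read by CellTiter-Glo ATP luminescence; mean IC50 reported.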

Assay [5] concerns BCL-2 G101V knock-in cell line H96 (derive from RS4;11). As to the kind of experiment: Bcl 2-G101V Knock-In RS4;11 Cell Proliferation Assay. The format is cell-based. As to conditions: RS4;11 Bcl-2 G101V knock-in clone H96, 48 hrs, CellTiter-GLO, read-out: Cellular proliferation assay (IC50, nM) RS4. The procedure, abridged: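 H96, a CRISPR-generated RS4;11 clone carrying BCL2-G101V knock-in (WES/RNA-seq validated), seeded 50,000 per well and exposed 48 h at 37 °C to 10-point dilutions topping at 1 or 10 μM. Viability by CellTiter-Glo luminescence; mean IC50.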

Assay [6] has as its target recombinant human Bcl-2 D103Y protein (Homo sapiens (Human), UniProt P10415, D103Y). As to the kind of experiment: Bcl-2-D103Y Biochemical Assay (TR-FRET). The format is binding. The note with it: for IC50: TR-FRET, FITC labeled Bak peptide; for Ratio of Bcl-2 D103Y/Bcl-2 WT: ratio of IC50. In outline: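 Recombinant human Bcl-2 D103Y binding to its ligand measured by TR-FRET (ex 337 nm, em 490/520 nm) with increasing compound concentrations. Percent inhibition from the 490/520 nm ratio; IC50 from four-parameter logistic fit.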

Setting [7] is: Bcl-2 wild type, TR-FRET, read-out: Biochemical assay (IC50, nM) Bcl-2 WT.
Where [8] appears, read: wild type Bcl-2, unit inferred, read-out: Bcl-2 WT.
The mark [9] stands for this setting: Homo sapiens, RS4-11, RS4;11 cells.

Read-outs that look alike come from different tables or passages of the source.

With `COc1cc(CN2CCN(C3CC4(C3)CN(c3ccc(C(=O)NS(=O)(=O)c5ccc(NC[C@H]6CC[C@](C)(O)CC6)c([N+](=O)[O-])c5)c(Oc5cnc6[nH]ccc6c5)c3)C4)[C@H](c3ccccc3C(C)C)C2)cc2ccoc12` [Example 307, 2-((1H-pyrrolo[2,3-b]pyridin-5-yl)oxy)-N-((4-((((1r,4r)-4-hydroxy-4-methylcyclohexyl)methyl)amino)-3-nitrophenyl)sulfonyl)-4-(6-((R)-2-(2-isopropylphenyl)-4-((7-methoxybenzofuran-5-yl)methyl)piperazin-1-yl)-2-azaspiro[3.3]heptan-2-yl)benzamide], the IC50 in assay [1] (setting [7]) is 0.17 nM; in assay [1] (setting [8]) it was 0.17 nM; in assay [2], 0.43 nM; in assay [4] (setting [9]), 0.11 nM; in assay [5] (Homo sapiens) it was 0.17 nM; in assay [6], 0.18 nM. The “Ratio of Bcl-2 G101V/WT” value in assay [3] stood at 2.5. Also, in assay [6], the “Ratio of Bcl-2 D103Y/Bcl-2 WT” value turned out to be 1.1.

Take `COc1ccc(CN2CCN(C3CC4(CCN(c5ccc(C(=O)NS(=O)(=O)c6ccc(NC[C@H]7CC[C@](C)(O)CC7)c([N+](=O)[O-])c6)c(Oc6cnc7[nH]cc(Cl)c7c6)c5)CC4)C3)[C@H](c3ccccc3C(C)C)C2)cc1` [Example 123, 2-((3-chloro-1H-pyrrolo[2,3-b]pyridin-5-yl)oxy)-N-((4-((((1r,4r)-4-hydroxy-4-methylcyclohexyl)methyl)amino)-3-nitrophenyl)sulfonyl)-4-(2-((R)-2-(2-isopropylphenyl)-4-(4-methoxybenzyl)piperazin-1-yl)-7-azaspiro[3.5]nonan-7-yl) benzamide]: the IC50 in assay [1] (setting [7]) was 0.54 nM; in assay [1] (setting [8]), 0.54 nM; in assay [2] it was 1.8 nM; in assay [4] (setting [9]), 0.25 nM; in assay [5] (Homo sapiens), 1.1 nM; in assay [6], 0.71 nM. The “Ratio of Bcl-2 G101V/WT” value in assay [3] is listed as 3.3. Also, in assay [6], the “Ratio of Bcl-2 D103Y/Bcl-2 WT” value stood at 1.3.

In the case of `CC(C)c1ccccc1C1CN(Cc2ccc3c(c2)CCCO3)CCN1C1CC2(CCN(c3ccc(C(=O)NS(=O)(=O)c4ccc(NC[C@H]5CC[C@](C)(O)CC5)c([N+](=O)[O-])c4)c(Oc4cnc5[nH]ccc5c4)c3)CC2)C1` (stereo partly drawn) [Example 53, 2-((1H-pyrrolo[2,3-b]pyridin-5-yl)oxy)-4-(2-(4-(chroman-6-ylmethyl)-2-(2-isopropylphenyl)piperazin-1-yl)-7-azaspiro[3.5]nonan-7-yl)-N-((4-((((1r,4r)-4-hydroxy-4-methylcyclohexyl)methyl)amino)-3-nitrophenyl)sulfonyl)benzamide], the IC50 was 0.17 nM in assay [1] (setting [7]); 0.17 nM in assay [1] (setting [8]); 0.6 nM in assay [2]; 0.47 nM in assay [4] (setting [9]); 3.1 nM in assay [5] (Homo sapiens); 0.38 nM in assay [6]. Besides, in assay [3], the “Ratio of Bcl-2 G101V/WT” value was found to be 3.5. In assay [6], the “Ratio of Bcl-2 D103Y/Bcl-2 WT” value stood at 2.2.

Take `COCCN1CCN(C2CC3(CCN(c4ccc(C(=O)NS(=O)(=O)c5cc6c(c([N+](=O)[O-])c5)N[C@H](C[C@H]5CC[C@H](O)CC5)CO6)c(Oc5cnc6[nH]ccc6c5)c4)CC3)C2)C(c2ccccc2C(C)C)C1` (stereo partly drawn) [Example 14, 2-((1H-pyrrolo[2,3-b]pyridin-5-yl)oxy)-N-(((R)-3-(((1r, 4R)-4-hydroxycyclohexyl)methyl)-5-nitro-3,4-dihydro-2H-benzo[b][1,4]oxazin-7-yl)sulfonyl)-4-(2-(2-(2-isopropylphenyl)-4-(2-methoxyethyl)piperazin-1-yl)-7-azaspiro[3.5]nonan-7-yl)benzamide]: the IC50 turned out to be 0.0065 nM in assay [1] (setting [7]); 0.0065 nM in assay [1] (setting [8]); 0.093 nM in assay [2]; 0.45 nM in assay [4] (setting [9]); 5.16 nM in assay [5] (Homo sapiens); 0.084 nM in assay [6]. The “Ratio of Bcl-2 G101V/WT” value in assay [3] was 14.3. Moreover, in assay [6], the “Ratio of Bcl-2 D103Y/Bcl-2 WT” value came to 13.

Regarding `CC(C)c1ccccc1C1CN(Cc2ccc3sccc3c2)CCN1C1CC2(CCN(c3ccc(C(=O)NS(=O)(=O)c4ccc(NC[C@H]5CC[C@](C)(O)CC5)c([N+](=O)[O-])c4)c(Oc4cnc5[nH]ccc5c4)c3)CC2)C1` (stereo partly drawn) [Example 58, 2-((1H-pyrrolo[2,3-b]pyridin-5-yl)oxy)-4-(2-(4-(benzo[b]thiophen-5-ylmethyl)-2-(2-isopropylphenyl)piperazin-1-yl)-7-azaspiro[3.5]nonan-7-yl)-N-((4-((((1r,4r)-4-hydroxy-4-methylcyclohexyl)methyl)amino)-3-nitrophenyl)sulfonyl)benzamide], the IC50 turned out to be 0.62 nM in assay [1] (setting [7]); 0.62 nM in assay [1] (setting [8]); 2 nM in assay [2]; 0.74 nM in assay [4] (setting [9]); 7.6 nM in assay [5] (Homo sapiens); 1.8 nM in assay [6]. In addition, the “Ratio of Bcl-2 G101V/WT” value in assay [3] came out at 3.2. In assay [6] (comparison in words), the “ratio of Bcl-2 D103Y/Bcl-2 wt, compared with F91b in WO2019210828” value is “significantly lower”. In assay [6], the “Ratio of Bcl-2 D103Y/Bcl-2 WT” value was 2.9.

Consider “2-((1H-pyrrolo[2,3-b]pyridin-5-yl) oxy)-N-((4-((((1r,4r)-4-hydroxy-4- methylcyclohexyl)methyl)amino)- 3-nitrophenyl)sulfonyl)-4-(2-((R)- 2-(2-isopropylphenyl)-4-((7- methoxybenzofuran-5-yl)methyl) piperazin-1-yl)-7-azaspiro[3.5] nonan-7-yl)benzamide [Example 280]”, for which the IC50 in assay [1] (setting [7]) was 0.26 nM; in assay [1] (setting [8]), 0.26 nM; in assay [2], 0.56 nM; in assay [4] (RS4;11 cells), 0.14 nM; in assay [5], 0.43 nM; in assay [6] it was 0.23 nM. The “Ratio of Bcl-2 G101V/WT” value in assay [3] is 2.2. The “Ratio of Bcl-2 D103Y/Bcl-2 WT” value in assay [6] is reported as 0.89.

Consider `CC(C)c1ccccc1[C@@H]1CN(Cc2ccc(C3COC3)cc2)CCN1C1CC2(C1)CN(c1ccc(C(=O)NS(=O)(=O)c3ccc(NC[C@H]4CC[C@](C)(O)CC4)c([N+](=O)[O-])c3)c(Oc3cnc4[nH]cc(F)c4c3)c1)C2` [Example 362, 2-((3-fluoro-1H-pyrrolo[2,3-b]pyridin-5-yl)oxy)-N-((4-((((1r,4r)-4-hydroxy-4-methylcyclohexyl)methyl)amino)-3-nitrophenyl)sulfonyl)-4-(6-((R)-2-(2-isopropylphenyl)-4-(4-(oxetan-3-yl)benzyl)piperazin-1-yl)-2-azaspiro[3.3]heptan-2-yl) benzamide], for which the IC50 in assay [1] (setting [7]) was 0.07 nM; in assay [1] (setting [8]), 0.069 nM; in assay [2], 0.14 nM; in assay [4] (setting [9]), 0.08 nM; in assay [5] (Homo sapiens), 0.17 nM; in assay [6], 0.095 nM. Also, in assay [3], the “Ratio of Bcl-2 G101V/WT” value is 2. Further, the “Ratio of Bcl-2 D103Y/Bcl-2 WT” value in assay [6] turned out to be 1.4.

Consider `COc1ccc(CN2CCN(C3CC4(C3)CN(c3ccc(C(=O)NS(=O)(=O)c5ccc(NC[C@H]6CC[C@](C)(O)CC6)c([N+](=O)[O-])c5)c(Oc5cnc6[nH]cc(F)c6c5)c3)C4)[C@H](c3ccccc3C(C)C)C2)cc1OC1CC1` [Example 364, 4-(6-((R)-4-(3-cyclopropoxy-4-methoxybenzyl)-2-(2-isopropylphenyl)piperazin-1-yl)-2-azaspiro[3.3]heptan-2-yl)-2-((3-fluoro-1H-pyrrolo[2,3-b]pyridin-5-yl)oxy)-N-((4-((((1r,4r)-4-hydroxy-4-methylcyclohexyl)methyl)amino)-3-nitrophenyl)sulfonyl) benzamide], for which the IC50 in assay [1] (setting [7]) was determined as 0.14 nM; in assay [2], 0.39 nM; in assay [4] (setting [9]) it was 0.13 nM; in assay [5] (Homo sapiens) it was 0.2 nM; in assay [6], 0.14 nM. Also, in assay [3], the “Ratio of Bcl-2 G101V/WT” value amounted to 2.9. Besides, the “Ratio of Bcl-2 D103Y/Bcl-2 WT” value in assay [6] came out at 1.0.

As for `COc1cc(CN2CCN(C3CC4(CCN(c5ccc(C(=O)NS(=O)(=O)c6ccc(NC[C@H]7CC[C@](C)(O)CC7)c([N+](=O)[O-])c6)c(Oc6cnc7[nH]cc(F)c7c6)c5)CC4)C3)[C@H](c3ccccc3C(C)C)C2)cc2c1OCC2` [Example 303], the IC50 in assay [1] (setting [7]) came to 0.11 nM; in assay [1] (setting [8]), 0.11 nM; in assay [2], 0.26 nM; in assay [4] (setting [9]), 0.3 nM; in assay [5] (Homo sapiens), 0.52 nM; in assay [6], 0.16 nM. In addition, the “Ratio of Bcl-2 G101V/WT” value in assay [3] was 2.3. Also, the “Ratio of Bcl-2 D103Y/Bcl-2 WT” value in assay [6] was 1.4.

For the origin of these results see US20240376097A1, “BCL-2 Inhibitor” (BeiGene Ltd., priority 2020, published 2024).
